Data as given in patent US9073855B2, “BCL-2 selective apoptosis-inducing agents for the treatment of cancer and immune diseases” (AbbVie Inc., priority 2008, dated 2015).

Assays:
[1] = system: FL5.12/Bcl-2 cells; experiment: FL5.12/Bcl-2 cell viability assay under IL-3 withdrawal (CellTitre Glo); assay type: cell-based, murine; details: Mus musculus, IL-3 withdrawn 48 hrs, then 24 hrs with compound
Method in brief: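 Bcl-2-overexpressing murine FL5.12 transfectants underwent IL-3 removal for 48 hrs before a 24 hr compound treatment. Cell viability was quantified with CellTitre Glo.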

[2] = biological target: GST-Bcl-XL (Homo sapiens, UniProt Q07817); experiment: TR-FRET binding assay, GST-Bcl-XL with F-Bak peptide probe; details: TR-FRET Binding Affinity, GST-Bcl-XL, F-Bak peptide probe
GST-Bcl-XL, sequence (Q07817 whole entry): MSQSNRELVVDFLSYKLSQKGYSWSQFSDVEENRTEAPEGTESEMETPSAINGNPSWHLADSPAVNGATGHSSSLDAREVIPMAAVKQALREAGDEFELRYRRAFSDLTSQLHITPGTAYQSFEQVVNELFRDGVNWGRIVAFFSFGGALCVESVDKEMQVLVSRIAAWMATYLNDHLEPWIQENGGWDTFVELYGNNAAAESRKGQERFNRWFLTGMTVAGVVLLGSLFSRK
Method in brief: (§1)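 Displacement of a fluorescein-labelled Bak peptide from the GST-tagged protein was followed by time-resolved FRET with a terbium anti-GST donor after 3 h incubation at room temperature. Inhibition constants were calculated with Wang's equation.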

[3] = biological target: GST-Bcl-2 (Homo sapiens, UniProt P10415); experiment: TR-FRET binding assay, GST-Bcl-2 with F-Bak peptide probe; details: TR-FRET Binding Affinity, GST-Bcl-2, F-Bak peptide probe
GST-Bcl-2, sequence (P10415 whole entry): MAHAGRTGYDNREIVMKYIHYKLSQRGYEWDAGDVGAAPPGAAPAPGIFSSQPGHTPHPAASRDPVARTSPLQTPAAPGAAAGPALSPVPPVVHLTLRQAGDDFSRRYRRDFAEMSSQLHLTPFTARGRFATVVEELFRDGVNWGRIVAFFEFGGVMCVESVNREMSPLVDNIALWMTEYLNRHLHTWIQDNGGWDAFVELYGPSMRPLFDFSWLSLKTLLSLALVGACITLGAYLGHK
Method in brief: as §1

`CC(c1ccccc1-c1ccc(Cl)cc1)N1CCN(c2ccc(C(=O)NS(=O)(=O)c3ccc(NN4CCN(C)CC4)c([N+](=O)[O-])c3)c(Oc3cccc4[nH]ccc34)c2)CC1` (stereo not drawn) [Example 217, 4-{4-[1-(4′-chloro-1,1′-biphenyl-2-yl)ethyl]piperazin-1-yl}-2-(1H-indol-4-yloxy)-N-({4-[(4-methylpiperazin-1-yl)amino]-3-nitrophenyl}sulfonyl)benzamide] showed an EC50 [1] of 20.8 nM, a Ki [2] of 44.8 nM and a Ki [3] of 0.262 nM.
`CN1CCC(Nc2ccc(S(=O)(=O)NC(=O)c3ccc(N4CCN(CC5=C(c6ccc(Cl)cc6)CC(C)(C)CC5)C(CO)C4)cc3Oc3ccc4[nH]ccc4c3)cc2[N+](=O)[O-])CC1` (stereo not drawn) [Example 218, 4-[4-{[2-(4-chlorophenyl)-4,4-dimethylcyclohex-1-en-1-yl]methyl}-3-(hydroxymethyl)piperazin-1-yl]-2-(1H-indol-5-yloxy)-N-({4-[(1-methylpiperidin-4-yl)amino]-3-nitrophenyl}sulfonyl)benzamide] gave an EC50 [1] of 33 nM, a Ki [2] of 96.9 nM and a Ki [3] of 0.131 nM.
In the case of `CC1(C)CCC(CN2CCN(c3ccc(C(=O)NS(=O)(=O)c4ccc(NC5CCN(C6CCOCC6)CC5)c([N+](=O)[O-])c4)c(Oc4ccc5[nH]ccc5c4)c3)CC2CO)=C(c2ccc(Cl)cc2)C1` (stereo not drawn) [Example 219, 4-[4-{[2-(4-chlorophenyl)-4,4-dimethylcyclohex-1-en-1-yl]methyl}-3-(hydroxymethyl)piperazin-1-yl]-2-(1H-indol-5-yloxy)-N-({3-nitro-4-[(1-tetrahydro-2H-pyran-4-ylpiperidin-4-yl)amino]phenyl}sulfonyl)benzamide], the EC50 [1] is reported as 23 nM, the Ki [2] is reported as 29.9 nM and the Ki [3] is reported as 0.236 nM.
`CN1CCN(Nc2ccc(S(=O)(=O)NC(=O)c3ccc(N4CCN(CC5=C(c6ccc(Cl)cc6)CC(C)(C)CC5)CC4)cc3Oc3ccc4[nH]ccc4c3)cc2S(=O)(=O)C(F)(F)F)CC1` [Example 220, 4-(4-{[2-(4-chlorophenyl)-4,4-dimethylcyclohex-1-en-1-yl]methyl}piperazin-1-yl)-2-(1H-indol-5-yloxy)-N-({4-[(4-methylpiperazin-1-yl)amino]-3-[(trifluoromethyl)sulfonyl]phenyl}sulfonyl)benzamide] gave an EC50 [1] of 24 nM, a Ki [2] of 31.4 nM and a Ki [3] of 0.192 nM.
In the case of `CN1CCC(Nc2ccc(S(=O)(=O)NC(=O)c3ccc(N4CCN(Cc5cc(OCCO)ccc5-c5ccc(Cl)cc5)CC4)cc3Oc3cccc4[nH]ccc34)cc2[N+](=O)[O-])CC1` [Example 221, 4-(4-{[4′-chloro-4-(2-hydroxyethoxy)-1,1′-biphenyl-2-yl]methyl}piperazin-1-yl)-2-(1H-indol-4-yloxy)-N-({4-[(1-methylpiperidin-4-yl)amino]-3-nitrophenyl}sulfonyl)benzamide], the EC50 [1] is reported as 149 nM, the Ki [2] is reported as 170 nM and the Ki [3] is reported as 0.057 nM.
Compound `CC1(C)CCC(CN2CCN(c3ccc(C(=O)NS(=O)(=O)c4ccc(NCCCN5CCNC(=O)C5)c([N+](=O)[O-])c4)c(Oc4ccc5[nH]ccc5c4)c3)CC2)=C(c2ccc(Cl)cc2)C1` [Example 222, 4-(4-{[2-(4-chlorophenyl)-4,4-dimethylcyclohex-1-en-1-yl]methyl}piperazin-1-yl)-2-(1H-indol-5-yloxy)-N-[(3-nitro-4-{[3-(3-oxopiperazin-1-yl)propyl]amino}phenyl)sulfonyl]benzamide] has an EC50 [1] of 23.7 nM, a Ki [2] of 137 nM and a Ki [3] of 0.107 nM.
For `CC1(C)CCC(CN2CCN(c3ccc(C(=O)NS(=O)(=O)c4ccc(NCCCN5CCNC(=O)C5)c([N+](=O)[O-])c4)c(Oc4cccc5[nH]ccc45)c3)CC2)=C(c2ccc(Cl)cc2)C1` [Example 223, 4-(4-{[2-(4-chlorophenyl)-4,4-dimethylcyclohex-1-en-1-yl]methyl}piperazin-1-yl)-2-(1H-indol-4-yloxy)-N-[(3-nitro-4-{[3-(3-oxopiperazin-1-yl)propyl]amino}phenyl)sulfonyl]benzamide], the EC50 [1] was 37.1 nM, the Ki [2] was 97.3 nM and the Ki [3] was 0.169 nM.
For `CN1CCC(Nc2ccc(S(=O)(=O)NC(=O)c3ccc(N4CCN(CC5=C(c6ccc(Cl)cc6)CCC(O)C5)CC4)cc3Oc3ccc4[nH]ccc4c3)cc2[N+](=O)[O-])CC1` (stereo not drawn) [Example 224, 4-(4-{[2-(4-chlorophenyl)-5-hydroxycyclohex-1-en-1-yl]methyl}piperazin-1-yl)-2-(1H-indol-5-yloxy)-N-({4-[(1-methylpiperidin-4-yl)amino]-3-nitrophenyl}sulfonyl)benzamide], the EC50 [1] was 21.2 nM, the Ki [2] was 0.999 nM and the Ki [3] was under 0.01 nM.
`O=C(NS(=O)(=O)c1ccc(NC2CCN(C3CCOCC3)CC2)c([N+](=O)[O-])c1)c1ccc(N2CCN(CC3=C(c4ccc(Cl)cc4)CCC(O)C3)CC2)cc1Oc1ccc2[nH]ccc2c1` (stereo not drawn) [Example 225, 4-(4-{[2-(4-chlorophenyl)-5-hydroxycyclohex-1-en-1-yl]methyl}piperazin-1-yl)-2-(1H-indol-5-yloxy)-N-({3-nitro-4-[(1-tetrahydro-2H-pyran-4-ylpiperidin-4-yl)amino]phenyl}sulfonyl)benzamide] gave an EC50 [1] of 29.9 nM, a Ki [2] of 3.48 nM and a Ki [3] of 0.01 nM.
With `CN1CCN(Nc2ccc(S(=O)(=O)NC(=O)c3ccc(N4CCN(CC5=C(c6ccc(Cl)cc6)CCC(O)C5)CC4)cc3Oc3ccc4[nH]ccc4c3)cc2[N+](=O)[O-])CC1` (stereo not drawn) [Example 226, 4-(4-{[2-(4-chlorophenyl)-5-hydroxycyclohex-1-en-1-yl]methyl}piperazin-1-yl)-2-(1H-indol-5-yloxy)-N-({4-[(4-methylpiperazin-1-yl)amino]-3-nitrophenyl}sulfonyl)benzamide] the EC50 [1] was 23 nM, the Ki [2] was 9.93 nM and the Ki [3] was 0.017 nM.
Work on `CC1(C)CCC(CN2CCN(c3ccc(C(=O)NS(=O)(=O)c4ccc(NC5CCN(C6Cc7ccccc7C6)CC5)c([N+](=O)[O-])c4)c(Oc4cccc5[nH]ccc45)c3)CC2)=C(c2ccc(Cl)cc2)C1` [Example 227, 4-(4-{[2-(4-chlorophenyl)-4,4-dimethylcyclohex-1-en-1-yl]methyl}piperazin-1-yl)-N-[(4-{[1-(2,3-dihydro-1H-inden-2-yl)piperidin-4-yl]amino}-3-nitrophenyl)sulfonyl]-2-(1H-indol-4-yloxy)benzamide] yielded an EC50 [1] of over 500 nM, a Ki [2] of over 660 nM and a Ki [3] of 6.83 nM.
For `CC1(C)CCC(CN2CCN(c3ccc(C(=O)NS(=O)(=O)c4ccc(NC5CCN(C6Cc7ccccc7C6)CC5)c([N+](=O)[O-])c4)c(Oc4ccc5[nH]ccc5c4)c3)CC2)=C(c2ccc(Cl)cc2)C1` [Example 228, 4-(4-{[2-(4-chlorophenyl)-4,4-dimethylcyclohex-1-en-1-yl]methyl}piperazin-1-yl)-N-[(4-{[1-(2,3-dihydro-1H-inden-2-yl)piperidin-4-yl]amino}-3-nitrophenyl)sulfonyl]-2-(1H-indol-5-yloxy)benzamide], the EC50 [1] was over 500 nM, the Ki [2] was over 660 nM and the Ki [3] was 4.67 nM.
Work on `CC1(C)CCC(CN2CCN(c3ccc(C(=O)NS(=O)(=O)c4ccc(NCC5(N6CCOCC6)CCCCC5)c([N+](=O)[O-])c4)c(Oc4ccc5[nH]ccc5c4)c3)CC2)=C(c2ccc(Cl)cc2)C1` [Example 229, 4-(4-{[2-(4-chlorophenyl)-4,4-dimethylcyclohex-1-en-1-yl]methyl}piperazin-1-yl)-2-(1H-indol-5-yloxy)-N-[(4-{[(1-morpholin-4-ylcyclohexyl)methyl]amino}-3-nitrophenyl)sulfonyl]benzamide] yielded an EC50 [1] of over 500 nM, a Ki [2] of over 660 nM and a Ki [3] of 49.4 nM.
`CC1(C)CCC(CN2CCN(c3ccc(C(=O)NS(=O)(=O)c4ccc(NC5CCN(Cc6nccs6)CC5)c([N+](=O)[O-])c4)c(Oc4ccc5[nH]ccc5c4)c3)CC2)=C(c2ccc(Cl)cc2)C1` [Example 230, 4-(4-{[2-(4-chlorophenyl)-4,4-dimethylcyclohex-1-en-1-yl]methyl}piperazin-1-yl)-2-(1H-indol-5-yloxy)-N-[(3-nitro-4-{[1-(1,3-thiazol-2-ylmethyl)piperidin-4-yl]amino}phenyl)sulfonyl]benzamide] was tested, and the EC50 [1] was 178 nM, the Ki [2] was over 660 nM and the Ki [3] was 8.82 nM.
In the case of `CC1(C)CCC(CN2CCN(c3ccc(C(=O)NS(=O)(=O)c4ccc(NC5CCN(Cc6cscn6)CC5)c([N+](=O)[O-])c4)c(Oc4ccc5[nH]ccc5c4)c3)CC2)=C(c2ccc(Cl)cc2)C1` [Example 231, 4-(4-{[2-(4-chlorophenyl)-4,4-dimethylcyclohex-1-en-1-yl]methyl}piperazin-1-yl)-2-(1H-indol-5-yloxy)-N-[(3-nitro-4-{[1-(1,3-thiazol-4-ylmethyl)piperidin-4-yl]amino}phenyl)sulfonyl]benzamide], the EC50 [1] is reported as 50.9 nM, the Ki [2] is reported as over 660 nM and the Ki [3] is reported as 0.918 nM.
In the case of `CC1(C)CCC(CN2CCN(c3ccc(C(=O)NS(=O)(=O)c4ccc(NCC5(CO)CCOCC5)c([N+](=O)[O-])c4)c(Oc4ccc5[nH]ccc5c4)c3)CC2)=C(c2ccc(Cl)cc2)C1` [Example 232, 4-(4-{[2-(4-chlorophenyl)-4,4-dimethylcyclohex-1-en-1-yl]methyl}piperazin-1-yl)-N-{[4-({[4-(hydroxymethyl)tetrahydro-2H-pyran-4-yl]methyl}amino)-3-nitrophenyl]sulfonyl}-2-(1H-indol-5-yloxy)benzamide], the EC50 [1] is reported as 12.3 nM, the Ki [2] is reported as 197 nM and the Ki [3] is reported as 0.46 nM.
`CC1(C)CCC(CN2CCN(c3ccc(C(=O)NS(=O)(=O)c4ccc(NCC5(O)CCCCC5)c([N+](=O)[O-])c4)c(Oc4ccc5[nH]ccc5c4)c3)CC2)=C(c2ccc(Cl)cc2)C1` [Example 238, 4-(4-{[2-(4-chlorophenyl)-4,4-dimethylcyclohex-1-en-1-yl]methyl}piperazin-1-yl)-N-[(4-{[(1-hydroxycyclohexyl)methyl]amino}-3-nitrophenyl)sulfonyl]-2-(1H-indol-5-yloxy)benzamide] was tested, and the EC50 [1] was 59 nM, the Ki [2] was over 660 nM and the Ki [3] was 0.43 nM.
